According to US20220170944A1, “MATERIALS AND METHODS FOR IDENTIFYING AND TREATING EOSINOPHILIC DISORDERS” (The Regents of the University of California, priority 2019, published 2022):

Columns and labels:
[1] = cited from earlier work
[2] = test system: EoE fibroblasts and esophageal epithelial cells; assay: COMP expression in cells treated in vitro with recombinant TGFb1; format: cell-based, human; settings: p<0.0001
Experimental: Primary esophageal fibroblasts from EoE patients were used. The fibroblast were treated in vitro with recombinant TGFb1. […] Biopsies were scored using a standardized histology score. […] COMP expression correlated with fibrosis (r=[…]), basal zone hyperplasia (r=0.59, p<0.0001), and eosinophilia (r=0.54, p<0.0001).

| Compound | tolerability / drug-related adverse events compared to placebo [1] | COMP expression induction [2] |
| --- | --- | --- |
| CCc1ccc(CCOc2ccc(CC3SC(=O)NC3=O)cc2)nc1 (centres unmarked) [Pioglitazone, pioglitazone] | no major drug-related adverse events | – |
| TGFb1: recombinant TGFb1, the canonical pro-fibrotic molecule transforming growth factor-beta-1 | – | up to 6000 fold |
